Reference: US6555569B2, “Use of heteroaryl substituted N-(indole-2-carbonyl-) amides for treatment of infection” (Pfizer Inc., priority 2000, dated 2003)
Converted amounts (≈) assume the structure as drawn.

How the values were obtained:
Chlamydia pneumoniae [1] = experiment: Chlamydia pneumoniae infection of HEp-G2 cells, Protocol 1; type: cell-based; details: for MIC / MBC: Chlamydia pneumoniae, Protocol 1; for MIC: HEp-G2 cells, 72 h infection, lowest concentration that inhibited the formation of inclusions; for MBC: no inclusions after compound removed and further 48 h incubation; for activity against growth of C. pneumoniae in HEp-2 cells: as shown in Table 2
Protocol: (§1) Protocol 1 was performed in 96-well flat-bottom microtiter plates. Each well contained 100 μL of 10^6 HEp-G2 cells/ml in standard medium that had been incubated for 24 h at 37° C. in 5% CO2. Compound stocks were prepared in dimethylsulfoxide, diluted in two-fold serial dilutions, and added to each well as 10 μL aliquots. Each compound concentration was assayed in triplicate. Elementary bodies (chlamydial stock) were diluted to contain 2×10^4inclusion-forming units (ifu) per milliliter and 90 μL was added to each well. Infection was allowed to proceed for 72 h at 37° C. in 5% CO2, after which the cells were fixed and stained with genus-reactive anti-LPS antibody. The use of a fluorescein (FITC)-conjugated secondary antibody allowed the number of inclusion-containing cells to be identified via inverted fluorescent microscopy. The minimum inhibitory concentration (MIC) was defined as the lowest concentration of compound that inhibited the formation of inclusions. The minimal bactericidal concentration (MBC) was defined as the lowest concentration of compound that prevented the formation of inclusions after the compound had been removed by the addition of fresh medium and the cultures had been incubated for a further 48 h. Procedures for growth and preparation of C. pneumoniae and HEp-G2 cells are described in Kalayoglu, M. V., et al., J. Infect. Dis., 1999, 180:780-790. Methodology for detecting inclusions using an direct fluorescent antibody technique is found in Byrne, G. I., et al. J. Infect. Dis., 1993, 168:415-420.

Chlamydia pneumoniae [2] = experiment: Chlamydia pneumoniae infection of HEp-G2 cells, Protocol 2 (compound added 15 h after challenge); type: cell-based; details: for MIC: Chlamydia pneumoniae, Protocol 2, compound added 15 h after challenge of HEp-G2 cells
Protocol: as §1
Protocol 2 was nearly identical to protocol 1 except that compound was added 15 h after challenge of HEp-G2 cells with C. pneumoniae. This protocol helps distinguish compounds that interfere with latter stages of C. pneumoniae growth and replication.

C. pneumoniae = C. pneumoniae protocol that treats HEp-G2 cells with cycloheximide; type: cell-based, Chlamydia pneumoniae; details: cycloheximide 1 μg/mL

MIC (Chlamydia pneumoniae [1]) [µg/mL] | MIC (Chlamydia pneumoniae [2]) [µg/mL] | MICs in a protocol that treats HEp-G2 cells with cycloheximide (C. pneumoniae) | Structure (SMILES) | MBC (Chlamydia pneumoniae [1]) [µg/mL] | activity against growth of C. pneumoniae in HEp-2 cells (Chlamydia pneumoniae [1]) | interfering with the latter stage of pneumoniae growth and replication (Chlamydia pneumoniae [2]; comparison of compound 1 with compound 2)
12.5 (≈ 28.2 µM) | 12.5 (≈ 28.2 µM) | did not differ | O=C(N[C@@H](Cc1ccc(F)cc1)C(=O)N1CCC(O)CC1)c1cc2cc(Cl)ccc2[nH]1 [Compound 1] | 25 (≈ 56.3 µM) | exhibited activity | superior to compound 2
25 (≈ 62.8 µM) | 50 (≈ 126 µM) | did not differ | O=C(N[C@@H](Cc1ccccc1)C(=O)N1CC(O)C1)c1cc2cc(Cl)ccc2[nH]1 [Compound 2] | 25 (≈ 62.8 µM) | exhibited activity | 
